Measured values reported in patent publication US20100240713A1, “AROMATIC AND HETEROAROMATIC COMPOUNDS USEFUL IN TREATING IRON DISORDERS” (XENON PHARMACEUTICALS INC., priority 2007, published 2010).
Structures can show the parent of a compound that is named as a salt.

Biological target: T1, DMT1 (Homo sapiens, UniProt P49281)
T1 sequence (P49281 1-568): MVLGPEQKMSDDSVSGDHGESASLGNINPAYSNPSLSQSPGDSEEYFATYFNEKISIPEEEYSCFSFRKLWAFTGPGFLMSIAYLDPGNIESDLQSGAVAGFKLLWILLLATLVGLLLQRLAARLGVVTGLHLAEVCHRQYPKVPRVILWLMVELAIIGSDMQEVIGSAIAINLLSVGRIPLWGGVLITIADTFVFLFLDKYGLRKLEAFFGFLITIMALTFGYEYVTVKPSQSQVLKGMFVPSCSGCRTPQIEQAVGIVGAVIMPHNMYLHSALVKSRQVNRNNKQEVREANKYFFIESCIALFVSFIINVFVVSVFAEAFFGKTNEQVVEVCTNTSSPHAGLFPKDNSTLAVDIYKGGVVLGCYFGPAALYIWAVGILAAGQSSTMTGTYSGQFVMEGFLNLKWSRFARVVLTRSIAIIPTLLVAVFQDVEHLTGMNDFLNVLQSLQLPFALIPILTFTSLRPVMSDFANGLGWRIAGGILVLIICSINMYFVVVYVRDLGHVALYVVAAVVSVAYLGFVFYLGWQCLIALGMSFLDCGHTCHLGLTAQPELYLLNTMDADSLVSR
Experiment: DMT1 activity assay (IC50 activity level, Table 1)
Type: cell-based
Conditions: inhibition of DMT1
Source text: This example discloses various in vitro assay for testing and profiling test agents against DMT1 stably expressed in cells of either an endogenous or recombinant origin. These assays can use stable cell lines overexpressing DMT1 or intestinal cells and intestinal tissue expressing endogenous DMT1. DMT1 function could also be assessed in other cell types that express DMT1. Of greatest relevance would be the erythrocytes (e.g. K562 cells) or hepatocytes (e.g. […]).
DMT1 function can be assessed in a number of ways, including monitoring fluorescence changes of an iron fluorophore (e.g. calcein), monitoring uptake of radiolabelled iron (^55Fe or ^59Fe) (Picard et al., J. Biol. Chem., 2000, 275(46):35738-45 and Wetli et al., Chem. Biol. 2006 September; 13(9):965-72), or by assessing the current or transport of iron and other metals into the cells or tissues using standard electrophysiological techniques (Gunshin et al., Nature, 1997, 388(6641):482-8.).
Variations of these assays involve alterations of incubation times, the iron status of the cells and tissues (which may be modulated by chemical chelators or by harvesting from iron deficient animals), the metal cation detected and the pH of the reaction can generally be made by conventional techniques known to those skilled in the art.
The Example numbers provided in Table 1 correspond to the Examples herein: […]
Molecule `CN/C(=N\C#N)NCc1c(C)cc(C)c(CN/C(=N/C#N)NC)c1C` [Example 2, 1,3-di[(2-cyano-3-methylguanidino)methyl]-2,4,6-trimethylbenzene] has an IC50 of no less than 1000 nM.
`N=C(N)Cc1cccc(CC(=N)N)c1` [Example 4, 2,2′-(1,3-phenylene)diacetimidamide] showed an IC50 of no less than 1000 nM.
For `CNC(=N)SCc1c(C)cc(C)c(CSC(=N)NC)c1C.Cl` [Example 7, 1,3-di[(methylamidino)thiomethyl]-2,4,6-trimethylbenzene 4-methylbenzenesulfonate hydrochloride], the IC50 was no less than 1000 nM.

Test system: not given
Experiment: not given
Conditions: not given
In the case of `N=C(N)SCc1nnc(CSC(=N)N)n1N` (as salt: hydrochloride) [Example 3.7, (4-amino-4H-1,2,4-triazole-3,5-diyl)bis(methylene)dicarbamimidothioate dihydrochloride], the melting point is reported as 213 °C (dec.).
Molecule `CCOC(=O)c1cc(C(=O)OCC)c(CSC(=N)N)cc1CSC(=N)N` (as salt: hydrobromid) [Example 3.4, diethyl 4,6-bis(carbamimidoylthiomethyl)isophthalate dihydrobromide] has a melting point of 237 to 238 °C.
With `Cc1nc(C)c(CSC(=N)N)c(C)c1CSC(=N)N` (as salt: hydrochloride) [Example 8, (2,4,6-trimethylpyridine-3,5-diyl)bis(methylene)dicarbamimidothioate dihydrochloride] the melting point was 185 to 187 °C.
`Cc1cc(CSC(=N)N)c(O)c(CSC(=N)N)c1` (as salt: hydrobromid) [Example 6.2, (2-hydroxy-5-methyl-1,3-phenylene)bis(methylene)dicarbamimidothioate dihydrobromide] showed a melting point of 223 to 225 °C.
Work on `COc1c(CSC(=N)N)cc(C)cc1CSC(=N)N` (as salt: hydrobromid) [Example 3.18, (2-methoxy-5-methyl-1,3-phenylene)bis(methylene)dicarbamimidothioate dihydrobromide] yielded a melting point of 236 to 239 °C.
In the case of `Cc1c(O)c(C)c(CSC(=N)N)c(C)c1CSC(=N)N` (as salt: hydrochloride) [Example 3.19, (5-hydroxy-2,4,6-trimethyl-1,3-phenylene)bis(methylene) dicarbamimidothioate dihydrochloride], the melting point is reported as 175 to 178 °C.
Work on `Cc1c(C)c(CSC(=N)N)c(C)c(CSC(=N)N)c1C` (as salt: hydrochloride) [Example 3.5, (2,4,5,6-tetramethyl-1,3-phenylene)bis(methylene)dicarbamimidothioate dihydrochloride] yielded a melting point greater than 260 °C.
In the case of `CN/C(=N\C#N)NCc1c(C)cc(C)c(CN/C(=N/C#N)NC)c1C` [Example 2, 1,3-di[(2-cyano-3-methylguanidino)methyl]-2,4,6-trimethylbenzene], the melting point is reported as 270 to 272 °C.
Molecule `N=C(N)SCc1cccc(CSC(=N)N)n1` (as salt: hydrobromid) [Example 3.12, pyridine-2,6-diylbis(methylene)dicarbamimidothioate dihydrobromide] has a melting point of 208 to 210 °C.
Molecule `Cc1cc(C)c(C(C)SC(=N)N)c(C)c1C(C)SC(=N)N` (stereo not drawn) (as salt: hydrobromid) [Example 6.1, 2-{1-[3-(1-carbamimidoylsulfanylethyl)-2,4,6-trimethylphenyl]ethyl}-isothiourea dihydrobromide] has a melting point of 204 to 206 °C.
In the case of `N=C(N)Cc1cccc(CC(=N)N)c1` [Example 4, 2,2′-(1,3-phenylene)diacetimidamide], the melting point is reported as 200 to 205 °C.
In the case of `Cc1cc(C)c(CSC(=N)N)cc1CSC(=N)N` (as salt: hydrochloride) [Example 3.16, (4,6-dimethyl-1,3-phenylene)bis(methylene)dicarbamimidothioate dihydrochloride], the melting point is reported as 248 to 251 °C.
Molecule `N=C(N)SC(=O)c1sc(C(=O)SC(=N)N)c(Cl)c1Cl` (as salt: hydrochloride) [Example 9, 2-(5-carbamimidoylsulfanecarbonyl-3,4-dichlorothiophene-2-carbonyl)isothiourea dihydrochloride] has a melting point of 215 to 218 °C.
Work on `Cc1c(CSC(=N)N)cc(CSC(=N)N)c(C)c1Br` (as salt: hydrochloride) [Example 3.17, (5-bromo-4,6-dimethyl-1,3-phenylene)bis(methylene) dicarbamimidothioate dihydrochloride] yielded a melting point of 270 to 273 °C.
With `N=C(N)SCc1c(Cl)c(Cl)c(Cl)c(CSC(=N)N)c1Cl` (as salt: hydrochloride) [Example 3.6, (2,4,5,6-tetrachloro-1,3-phenylene)bis(methylene)dicarbamimidothioate dihydrochloride] the melting point was 208 to 210 °C.
Work on `N=C(N)SCc1cccc2cccc(CSC(=N)N)c12` (as salt: hydrobromid) [Example 3.13, naphthalene-1,8-diylbis(methylene)dicarbamimidothioate dihydrobromide] yielded a melting point of 230 to 233 °C.
In the case of `CNC(=N)SCc1c(C)cc(C)c(CSC(=N)NC)c1C.Cl` [Example 7, 1,3-di[(methylamidino)thiomethyl]-2,4,6-trimethylbenzene 4-methylbenzenesulfonate hydrochloride], the melting point is reported as 223 to 225 °C.
`Cc1cc(CSC(=N)N)cc(CSC(=N)N)c1` (as salt: hydrobromid) [Example 3.3, (5-methyl-1,3-phenylene)bis(methylene)dicarbamimidothioate dihydrobromide] showed a melting point of 240 to 241 °C.
Molecule `CC(C)c1cc(C(C)C)c(CSC(=N)N)cc1CSC(=N)N` (as salt: hydrobromid) [Example 3.1, (4,6-diisopropyl-1,3-phenylene)bis(methylene)dicarbamimidothioate dihydrobromide] has a melting point of 208 to 210 °C.
For `N=C(N)SCc1n[nH]c(CSC(=N)N)n1` (as salt: hydrochloride) [Example 3.8, (1H-1,2,4-triazole-3,5-diyl)bis(methylene)dicarbamimidothiodate dihydrochloride], the melting point was 196 to 200 °C.
Work on `CC(C)(SC(=N)N)c1cccc(C(C)(C)SC(=N)N)c1` (as salt: hydrobromid) [Example 6, 2-{1-[3-(1-carbamimidoylsulfanyl-1-methylethyl)phenyl]-1-methylethyl}-isothiourea dihydrobromide] yielded a melting point of 142 to 144 °C.
